Test [1] has as its system PI3-kinase p110-alpha/p85-alpha (Homo sapiens), P27986+P42336 [E545K]. The test can be described thus: Inhibition of recombinant full-length human PI3K p110alpha E545K mutant/p85alpha assessed as residual activity at 1 uM assessed as residual activity at 1 uM using phosphatidylinositol-4, 5-bisphosphate as substrate incubated for 40 mins in presence of [gamma33P]ATP by scintillation counting based radiometry assay relative to control. It counts as protein-complex assay.

In test [2] the test system is Serine/threonine-protein kinase Sgk1 (Homo sapiens), O00141 [S422D]. The experiment in a line: Inhibition of recombinant human SGK S422D mutant (60 to end residues) assessed as residual activity at 1 uM using GRPRTSSFAEGKK as substrate measured after 40 mins in presence of [gamma33P]ATP by scintillation counting method relative to control.
Test [3] concerns Tyrosine-protein kinase Blk (Homo sapiens), P51451 [UNDEFINED MUTATION]. The test can be described thus: Inhibition of recombinant full length human BLK M287V mutant assessed as residual activity at 1 uM using poly(Glu, Tyr) 4:1 as substrate incubated for 40 mins in presence of [gamma-33ATP] by scintillation counting based radiometry assay relative to control.
For test [4], the target named is T1, cGMP-dependent protein kinase 1 (Homo sapiens) (UniProt Q13976).
T1 sequence (whole entry): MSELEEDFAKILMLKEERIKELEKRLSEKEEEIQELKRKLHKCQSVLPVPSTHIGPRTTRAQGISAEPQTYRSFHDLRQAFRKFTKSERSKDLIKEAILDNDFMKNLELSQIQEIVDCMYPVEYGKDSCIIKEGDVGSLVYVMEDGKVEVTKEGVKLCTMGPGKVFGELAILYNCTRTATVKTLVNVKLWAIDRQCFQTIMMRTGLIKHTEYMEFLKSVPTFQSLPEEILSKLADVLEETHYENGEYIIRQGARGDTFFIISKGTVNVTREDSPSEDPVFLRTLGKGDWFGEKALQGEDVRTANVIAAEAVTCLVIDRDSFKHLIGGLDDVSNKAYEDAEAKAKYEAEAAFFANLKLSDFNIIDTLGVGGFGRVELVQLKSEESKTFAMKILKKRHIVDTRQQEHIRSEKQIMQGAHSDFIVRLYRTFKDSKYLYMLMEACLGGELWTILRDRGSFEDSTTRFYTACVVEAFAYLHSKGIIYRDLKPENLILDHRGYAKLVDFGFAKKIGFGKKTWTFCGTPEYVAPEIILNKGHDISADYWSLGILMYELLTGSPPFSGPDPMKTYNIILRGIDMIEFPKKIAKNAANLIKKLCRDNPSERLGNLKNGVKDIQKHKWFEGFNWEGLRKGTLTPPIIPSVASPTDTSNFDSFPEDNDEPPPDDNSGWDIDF
The test can be described thus: Inhibition of recombinant full-length human PKG1beta assessed as residual activity at 1 uM using RRRLSFAEPG as substrate measured after 40 mins in presence of [gamma33P]ATP by scintillation counting method relative to control.

Test [5] has as its target Cyclin-dependent kinase-like 4 (Homo sapiens) (UniProt Q5MAI5). The experiment in a line: Inhibition of recombinant full length human CDKL4 assessed as residual activity at 1 uM in presence of [gamma-33ATP] by scintillation counting based radiometry assay relative to control.
For test [6], the target named is G protein-coupled receptor kinase 6 (Homo sapiens) (UniProt P43250). The experiment in a line: Inhibition of recombinant full length human GRK6 assessed as residual activity at 1 uM using casein as substrate at 40 mins in presence of [gamma-33ATP] by scintillation counting based radiometry assay relative to control.
Chain of G protein-coupled receptor kinase 6 (Homo sapiens) (P43250 whole entry, looked up): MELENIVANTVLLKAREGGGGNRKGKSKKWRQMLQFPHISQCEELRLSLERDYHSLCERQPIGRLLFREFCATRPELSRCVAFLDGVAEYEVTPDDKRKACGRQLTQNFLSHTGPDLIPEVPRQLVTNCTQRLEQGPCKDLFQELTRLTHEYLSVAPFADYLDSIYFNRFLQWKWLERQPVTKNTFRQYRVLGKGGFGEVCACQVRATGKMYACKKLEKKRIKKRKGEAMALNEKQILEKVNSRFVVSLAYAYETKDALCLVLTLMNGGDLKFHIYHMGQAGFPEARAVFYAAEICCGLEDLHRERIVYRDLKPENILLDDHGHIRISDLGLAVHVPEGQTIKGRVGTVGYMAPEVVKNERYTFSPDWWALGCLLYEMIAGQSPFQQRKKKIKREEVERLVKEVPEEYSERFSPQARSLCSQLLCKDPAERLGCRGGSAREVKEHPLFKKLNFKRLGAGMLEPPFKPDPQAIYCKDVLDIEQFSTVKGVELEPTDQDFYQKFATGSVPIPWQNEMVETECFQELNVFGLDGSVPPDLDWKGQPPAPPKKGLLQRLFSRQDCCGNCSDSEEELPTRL
For test [7], the target named is Transient receptor potential cation channel subfamily M member 7 (Homo sapiens) (UniProt Q96QT4). The experiment in a line: Inhibition of recombinant human CHAK1 (1180 to end residues) assessed as residual activity at 1 uM using myelin basic protein as substrate incubated for 40 mins in presence of [gamma-33ATP] by scintillation counting based radiometry assay relative to control.
Chain of Transient receptor potential cation channel subfamily M member 7 (Homo sapiens) (Q96QT4 whole entry): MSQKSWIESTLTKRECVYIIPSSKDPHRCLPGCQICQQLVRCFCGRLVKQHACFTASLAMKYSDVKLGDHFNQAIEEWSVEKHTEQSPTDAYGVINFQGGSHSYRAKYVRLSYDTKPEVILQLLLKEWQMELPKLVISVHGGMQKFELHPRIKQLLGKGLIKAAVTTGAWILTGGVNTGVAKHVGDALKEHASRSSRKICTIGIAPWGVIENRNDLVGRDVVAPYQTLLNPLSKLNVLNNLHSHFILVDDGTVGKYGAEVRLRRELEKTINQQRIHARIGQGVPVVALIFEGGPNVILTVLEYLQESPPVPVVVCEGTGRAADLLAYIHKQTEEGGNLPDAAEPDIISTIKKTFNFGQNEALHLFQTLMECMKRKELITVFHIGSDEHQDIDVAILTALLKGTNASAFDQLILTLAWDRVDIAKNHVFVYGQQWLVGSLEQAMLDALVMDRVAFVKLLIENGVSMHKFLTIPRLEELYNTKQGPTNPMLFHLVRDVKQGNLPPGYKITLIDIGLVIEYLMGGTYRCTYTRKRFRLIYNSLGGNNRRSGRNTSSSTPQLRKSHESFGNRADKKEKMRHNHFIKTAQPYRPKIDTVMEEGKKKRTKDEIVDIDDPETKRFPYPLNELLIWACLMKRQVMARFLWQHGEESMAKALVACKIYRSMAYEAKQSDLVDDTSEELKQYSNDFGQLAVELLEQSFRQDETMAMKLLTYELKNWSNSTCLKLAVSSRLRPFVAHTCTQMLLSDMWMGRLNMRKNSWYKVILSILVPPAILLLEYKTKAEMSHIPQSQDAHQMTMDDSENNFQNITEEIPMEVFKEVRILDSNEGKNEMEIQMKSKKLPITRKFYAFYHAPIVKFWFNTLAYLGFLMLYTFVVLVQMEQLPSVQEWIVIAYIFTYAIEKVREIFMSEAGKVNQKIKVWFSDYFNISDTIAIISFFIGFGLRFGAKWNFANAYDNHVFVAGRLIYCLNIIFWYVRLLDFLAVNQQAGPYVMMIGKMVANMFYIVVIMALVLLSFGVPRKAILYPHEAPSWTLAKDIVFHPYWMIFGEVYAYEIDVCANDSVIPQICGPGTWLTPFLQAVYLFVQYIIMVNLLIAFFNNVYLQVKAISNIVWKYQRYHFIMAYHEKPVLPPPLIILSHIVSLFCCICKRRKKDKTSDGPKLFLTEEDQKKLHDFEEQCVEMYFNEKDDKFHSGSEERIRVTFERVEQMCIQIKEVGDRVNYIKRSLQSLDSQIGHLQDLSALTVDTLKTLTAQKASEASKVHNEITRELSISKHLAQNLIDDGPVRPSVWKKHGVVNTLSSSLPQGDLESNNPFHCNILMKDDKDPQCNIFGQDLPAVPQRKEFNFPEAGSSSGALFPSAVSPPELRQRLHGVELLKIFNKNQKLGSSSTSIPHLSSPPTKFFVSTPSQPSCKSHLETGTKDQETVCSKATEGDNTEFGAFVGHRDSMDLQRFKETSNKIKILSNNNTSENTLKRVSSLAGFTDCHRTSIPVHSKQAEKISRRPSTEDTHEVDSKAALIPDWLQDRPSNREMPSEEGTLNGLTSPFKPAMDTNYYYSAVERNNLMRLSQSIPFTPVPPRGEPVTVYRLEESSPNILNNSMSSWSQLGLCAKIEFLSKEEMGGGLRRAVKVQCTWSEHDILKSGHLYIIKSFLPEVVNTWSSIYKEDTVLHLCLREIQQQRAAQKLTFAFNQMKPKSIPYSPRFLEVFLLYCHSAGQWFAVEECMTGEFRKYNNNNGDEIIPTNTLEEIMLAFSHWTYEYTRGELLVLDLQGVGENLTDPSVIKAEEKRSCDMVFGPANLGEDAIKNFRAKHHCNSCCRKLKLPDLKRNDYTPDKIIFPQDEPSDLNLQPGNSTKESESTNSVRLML

The test system of test [8] is Epidermal growth factor receptor (Homo sapiens), P00533 [L858R]. The experiment in a line: Inhibition of recombinant human EGFR L858R mutant (696 to end residues) assessed as residual activity at 1 uM using poly(Glu, Tyr) 4:1 as substrate at 40 mins in presence of [gamma-33ATP] by scintillation counting based radiometry assay relative to control.
The target of test [9] is Serine/threonine-protein kinase PAK 1 (Homo sapiens) (UniProt Q13153). The experiment in a line: Inhibition of recombinant human PAK1 (150 to end residues) assessed as residual activity at 1 uM using RRRLSFAEPG as substrate measured after 40 mins in presence of [gamma33P]ATP by scintillation counting method relative to control.
Chain of Serine/threonine-protein kinase PAK 1 (Homo sapiens) (Q13153 whole entry, the tested form may be a part): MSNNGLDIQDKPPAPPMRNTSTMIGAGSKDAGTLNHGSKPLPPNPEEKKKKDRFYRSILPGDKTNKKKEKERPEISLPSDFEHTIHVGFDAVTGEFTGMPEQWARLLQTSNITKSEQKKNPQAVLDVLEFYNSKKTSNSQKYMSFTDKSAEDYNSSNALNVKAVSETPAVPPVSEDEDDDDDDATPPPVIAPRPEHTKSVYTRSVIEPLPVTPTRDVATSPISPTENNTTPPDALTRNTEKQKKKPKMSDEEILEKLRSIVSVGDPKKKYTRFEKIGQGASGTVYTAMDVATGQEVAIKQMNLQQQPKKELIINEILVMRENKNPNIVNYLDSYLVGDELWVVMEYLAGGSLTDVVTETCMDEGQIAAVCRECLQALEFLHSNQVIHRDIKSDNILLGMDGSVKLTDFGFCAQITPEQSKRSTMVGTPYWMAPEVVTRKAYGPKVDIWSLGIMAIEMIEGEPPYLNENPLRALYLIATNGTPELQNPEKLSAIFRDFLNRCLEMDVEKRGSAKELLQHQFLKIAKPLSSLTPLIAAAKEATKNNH
Test [10] deals with Ephrin type-A receptor 2 (Homo sapiens) (UniProt P29317). The test can be described thus: Inhibition of recombinant human EphA2 (596 to 900 residues) assessed as residual activity at 1 uM using poly(Glu, Tyr) 4:1 as substrate at 40 mins in presence of [gamma-33ATP] by scintillation counting based radiometry assay relative to control.
Chain of Ephrin type-A receptor 2 (Homo sapiens) (P29317 whole entry, the tested form may be a part): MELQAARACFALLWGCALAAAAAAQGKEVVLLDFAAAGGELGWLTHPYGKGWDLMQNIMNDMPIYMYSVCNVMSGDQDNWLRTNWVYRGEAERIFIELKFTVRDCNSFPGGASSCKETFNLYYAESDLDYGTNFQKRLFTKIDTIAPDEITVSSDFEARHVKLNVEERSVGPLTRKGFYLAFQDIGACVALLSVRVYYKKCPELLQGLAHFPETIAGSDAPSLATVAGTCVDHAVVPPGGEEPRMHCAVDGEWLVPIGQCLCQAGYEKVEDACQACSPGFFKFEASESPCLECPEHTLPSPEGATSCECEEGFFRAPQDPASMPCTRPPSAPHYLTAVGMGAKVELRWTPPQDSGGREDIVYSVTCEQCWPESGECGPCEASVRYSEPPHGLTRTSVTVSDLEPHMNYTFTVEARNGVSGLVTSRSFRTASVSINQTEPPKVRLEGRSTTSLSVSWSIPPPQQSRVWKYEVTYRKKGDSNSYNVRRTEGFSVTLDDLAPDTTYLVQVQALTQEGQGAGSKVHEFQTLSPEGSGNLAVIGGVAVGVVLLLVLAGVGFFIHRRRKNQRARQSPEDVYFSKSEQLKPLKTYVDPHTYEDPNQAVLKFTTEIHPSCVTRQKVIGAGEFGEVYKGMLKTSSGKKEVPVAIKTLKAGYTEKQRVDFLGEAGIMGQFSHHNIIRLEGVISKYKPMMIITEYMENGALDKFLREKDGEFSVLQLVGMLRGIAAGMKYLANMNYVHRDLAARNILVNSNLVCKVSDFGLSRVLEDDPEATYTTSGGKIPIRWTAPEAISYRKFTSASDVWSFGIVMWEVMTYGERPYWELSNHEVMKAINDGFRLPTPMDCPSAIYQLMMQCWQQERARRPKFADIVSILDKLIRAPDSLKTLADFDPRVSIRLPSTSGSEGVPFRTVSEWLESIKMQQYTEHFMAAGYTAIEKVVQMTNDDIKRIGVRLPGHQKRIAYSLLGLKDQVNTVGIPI
Test [11] deals with Serine/threonine-protein kinase Sgk2 (Homo sapiens), Q9HBY8 [S416D]. The test can be described thus: Inhibition of recombinant human SGK2 S416D mutant (54 to end residues) assessed as residual activity at 1 uM using GRPRTSSFAEGKK as substrate measured after 40 mins in presence of [gamma33P]ATP by scintillation counting method relative to control.
Chain of Serine/threonine-protein kinase Sgk2 (Homo sapiens), Q9HBY8 [S416D] (Q9HBY8 1-367 with tags or gaps S416D): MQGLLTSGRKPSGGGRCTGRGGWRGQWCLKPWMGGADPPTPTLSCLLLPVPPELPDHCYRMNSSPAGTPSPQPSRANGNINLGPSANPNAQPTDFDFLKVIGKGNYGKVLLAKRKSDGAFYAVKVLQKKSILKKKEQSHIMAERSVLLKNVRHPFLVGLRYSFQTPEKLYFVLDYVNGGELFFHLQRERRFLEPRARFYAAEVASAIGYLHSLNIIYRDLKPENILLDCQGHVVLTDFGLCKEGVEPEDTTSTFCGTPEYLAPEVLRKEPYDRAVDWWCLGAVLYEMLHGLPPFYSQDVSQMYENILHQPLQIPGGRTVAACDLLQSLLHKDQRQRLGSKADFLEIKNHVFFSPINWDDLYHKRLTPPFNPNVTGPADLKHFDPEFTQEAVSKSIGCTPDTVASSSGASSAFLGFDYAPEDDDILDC
Test [12] deals with CDK6/cyclin D3 (Homo sapiens) (UniProt P30281+Q00534). The test can be described thus: Inhibition of recombinant full length human CDK6/cyclinD3 assessed as residual activity at 1 uM using histone H1 as substrate incubated for 40 mins in presence of [gamma-33ATP] by scintillation counting based radiometry assay relative to control. It counts as protein-complex assay.
Test [13] has as its target Dual specificity protein kinase CLK4 (Homo sapiens) (UniProt Q9HAZ1). The experiment in a line: Inhibition of recombinant human CLK4 (128 to end residues) assessed as residual activity at 1 uM using YRRAAVPPSPSLSR as substrate incubated 40 mins in presence of [gamma-33ATP] by scintillation counting based radiometry assay relative to control.
Test [14] has as its system Epidermal growth factor receptor (Homo sapiens), P00533 [L861Q]. The test can be described thus: Inhibition of recombinant human EGFR L861Q mutant (696 to end residues) assessed as residual activity at 1 uM using poly(Glu, Tyr) 4:1 as substrate at 40 mins in presence of [gamma-33ATP] by scintillation counting based radiometry assay relative to control.
The species named for test [15] is Homo sapiens. The test can be described thus: Inhibition of recombinant full length human PKBalpha S478G mutant assessed as residual activity at 1 uM using GRPRTSSFAEGKK as substrate measured after 40 mins in presence of [gamma33P]ATP by scintillation counting method relative to control.
The target in test [16] is Wee1-like protein kinase 2 (Homo sapiens) (UniProt P0C1S8). The test can be described thus: Inhibition of recombinant full-length human WEE1b at 1 uM assessed as residual activity at 1 uM using LSNLYHQGKFLQTFCGSPLYRRR as substrate measured after 120 mins in presence of [gamma33P]ATP by scintillation counting method relative to control.
The species named for test [17] is Homo sapiens. The experiment in a line: Inhibition of human MAPK2 assessed as residual activity at 1 uM relative to control.

Chain of Cyclin-dependent kinase-like 4 (Homo sapiens) (Q5MAI5 whole entry): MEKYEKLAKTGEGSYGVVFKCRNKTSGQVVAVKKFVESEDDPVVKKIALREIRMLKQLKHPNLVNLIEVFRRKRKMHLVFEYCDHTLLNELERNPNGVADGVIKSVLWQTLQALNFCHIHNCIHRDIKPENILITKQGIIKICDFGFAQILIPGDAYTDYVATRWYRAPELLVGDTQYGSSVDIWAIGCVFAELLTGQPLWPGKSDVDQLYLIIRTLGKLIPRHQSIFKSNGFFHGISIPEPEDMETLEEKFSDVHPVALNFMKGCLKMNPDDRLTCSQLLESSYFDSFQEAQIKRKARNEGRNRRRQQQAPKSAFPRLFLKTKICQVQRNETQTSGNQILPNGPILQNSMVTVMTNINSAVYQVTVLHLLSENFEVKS

For `C=CCOC(=O)c1cc(-c2ccc(/C=C3/NC(=S)NC3=O)o2)ccc1Cl`, the Activity was 92% in test [1]; 91% in [2]; 93% in [3]; 100% in [4]; 58% in test [5]; 104% in [6]. Moreover, the Activity in test [7] was determined as 99%; in [8], 106%; in test [9] it was 100%; in test [10], 92%; in [11], 108%; in test [12] it was 84%. For the same compound, the Activity in [13] was 18%; in [14] it was 106%; in the test listed under Homo sapiens [15] it was 97%; in test [16], 93%; in the test listed under Homo sapiens [17] it was 99%.

Turning to `N=C1NC(=O)/C(=C\c2ccc(-c3cccc([N+](=O)[O-])c3)o2)S1`, the Activity stood at 100% in test [1]; 98% in [2]; 107% in test [3]; 82% in test [4]; 65% in [5]; 102% in [6]. The Activity in [7] was found to be 104%; in [8] it was 76%; in [9], 104%; in test [10], 100%; in test [11], 101%; in [12], 92%. In addition, the Activity in test [13] stood at 60%; in test [14] it was 85%; in the test filed under Homo sapiens [15], 97%; in [16] it was 106%; in the test listed under Homo sapiens [17] it was 103%.

Values taken from ChEMBL document CHEMBL4334438, “Discovery of novel glycogen synthase kinase-3α inhibitors: Structure-based virtual screening, preliminary SAR and biological evaluation for treatment of acute myeloid leukemia” (Eur J Med Chem, 2019).
